Article PMC11435058, “Synthesis of New Thiazole-Privileged Chalcones as Tubulin Polymerization Inhibitors with Potential Anticancer Activities” (Pharmaceuticals, 2024)

What was measured:
MDA-MB-468 = experiment: NCI-60 anticancer screen (SRB; single dose and five doses); type: cell-based, human
In short: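 NCI panel of about 60 human tumor cell lines treated with compound at a single concentration (10μM) for 48 h. Growth measured by SRB protein staining and expressed as percent growth of treated versus untreated control cells.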

[1] = tested on: 60 human tumor cell lines panel; experiment: NCI-60 anticancer screen, whole panel (means and ranges over the cell lines); type: cell-based
SNB-19 = experiment: cells; details: Homo sapiens
HL-60(TB) = experiment: NCI-60 anticancer screen (SRB; single dose and five doses); details: Homo sapiens
MOLT-4 = experiment: as above; details: Homo sapiens
NCI-H522 = experiment: as above; details: Homo sapiens
SW-620 = experiment: as above; details: Homo sapiens
SF-268 = experiment: as above; details: Homo sapiens
SF-539 = experiment: as above; details: Homo sapiens
U251 = experiment: as above; details: Homo sapiens
MALME-3M = experiment: as above; details: Homo sapiens
M14 = experiment: as above; details: Homo sapiens
SK-MEL-2 = experiment: as above; details: Homo sapiens
SK-MEL-5 = experiment: as above; details: Homo sapiens
UACC-257 = experiment: as above; details: Homo sapiens
UACC-62 = experiment: as above; details: Homo sapiens
IGROV1 = experiment: as above; details: Homo sapiens
OVCAR-8 = experiment: as above; details: Homo sapiens
SK-OV-3 = experiment: as above; details: Homo sapiens
CAKI-1 = experiment: as above; details: Homo sapiens
RXF 393 = experiment: as above; details: Homo sapiens
UO-31 = experiment: as above; details: Homo sapiens
MCF7 = experiment: as above; details: Homo sapiens
MDA-MB-231/ATCC = experiment: as above; details: Homo sapiens
HS 578T = experiment: as above; details: Homo sapiens
[2] = five doses, mean graph midpoint over all cell lines
[3] = 48 h, read-out: Growth Percentage

Cc1[nH]c(=S)sc1C(=O)/C=C/c1cccc([N+](=O)[O-])c1 [2h, (E)-1-(4-Methyl-2-Thioxo-2,3-Dihydrothiazol-5-yl)-3-(3-Nitrophenyl)Prop-2-En-1-One]
activity at 10 µM (MDA-MB-468; Homo sapiens, 48 h, MDA-MB-468, dose of 10 μM, read-out: Growth Percentage): -82.9% | IC50 (MDA-MB-468; Homo sapiens, MDA-MB-468, MDA-MB-468, Breast Cancer, five dose): 7.76 µM | GI50 (MDA-MB-468; Homo sapiens, MDA-MB-468, Breast Cancer, five dose): 2.95 µM | CC50 (MDA-MB-468; Homo sapiens, MDA-MB-468, Breast Cancer, five dose, read-out: LC50 (the source's name)): 40.7 µM | TGI (MDA-MB-468; MDA-MB-468, Breast Cancer, five dose): 10.72 µM | activity at 10 µM ([1]; Homo sapiens, 48 h, mean over the tested cell lines, dose of 10 μM, read-out: Mean growth percentage): -21.8% | Log10GI50 _MID [1, 2]: -5.37 Molar | Log10LC50 _MID [1, 2]: -4.34 Molar | Log10TGI _MID [1, 2]: -4.82 Molar | GI50 (SNB-19; SNB-19): 4.9 µM | IC50 (SNB-19; SNB-19): 11.8 µM | activity at 10 µM (SNB-19; SNB-19, 48 h, read-out: Growth Percentage): 10.4% | CC50 (SNB-19; SNB-19, read-out: LC50): 41.7 µM | IC (TGI) (SNB-19; SNB-19, read-out: TGI): 17 µM | GI50 (HL-60(TB); HL-60): 1.95 µM | IC50 (HL-60(TB); HL-60): 3.31 µM | activity at 10 µM (HL-60(TB); HL-60, 48 h, read-out: Growth Percentage): 5.25% | CC50 (HL-60(TB); HL-60, read-out: LC50): > 100 µM | IC (TGI) (HL-60(TB); HL-60, read-out: TGI): 5.75 µM | GI50 (MOLT-4; MOLT-4): 3.47 µM | IC50 (MOLT-4; MOLT-4): 5.01 µM | activity at 10 µM (MOLT-4; MOLT-4, 48 h, read-out: Growth Percentage): 13.3% | CC50 (MOLT-4; MOLT-4, read-out: LC50): > 100 µM | IC (TGI) (MOLT-4; MOLT-4, read-out: TGI): 30.2 µM | GI50 (NCI-H522; NCI-H522): 5.01 µM | IC50 (NCI-H522; NCI-H522): 11.8 µM | activity at 10 µM (NCI-H522; NCI-H522, 48 h, read-out: Growth Percentage): -58.8% | CC50 (NCI-H522; NCI-H522, read-out: LC50): 46.8 µM | IC (TGI) (NCI-H522; NCI-H522, read-out: TGI): 17.8 µM | GI50 (SW-620; SW-620): 3.39 µM | IC50 (SW-620; SW-620): 4.07 µM | activity at 10 µM (SW-620; SW-620, 48 h, read-out: Growth Percentage): -37.8% | CC50 (SW-620; SW-620, read-out: LC50): 45.7 µM | IC (TGI) (SW-620; SW-620, read-out: TGI): 11 µM | GI50 (SF-268; SF-268): 10.5 µM | IC50 (SF-268; SF-268): 19.1 µM | activity at 10 µM (SF-268; SF-268, 48 h, read-out: Growth Percentage): 27.5% | CC50 (SF-268; SF-268, read-out: LC50): 57.5 µM | IC (TGI) (SF-268; SF-268, read-out: TGI): 24.6 µM | GI50 (SF-539; SF-539): 2.19 µM | IC50 (SF-539; SF-539): 3.98 µM | activity at 10 µM (SF-539; SF-539, 48 h, read-out: Growth Percentage): -85.9% | CC50 (SF-539; SF-539, read-out: LC50): 12.9 µM | IC (TGI) (SF-539; SF-539, read-out: TGI): 4.9 µM | GI50 (U251; U-251): 1.74 µM | IC50 (U251; U-251): 3.09 µM | activity at 10 µM (U251; U-251, 48 h, read-out: Growth Percentage): -76% | CC50 (U251; U-251, read-out: LC50): 5.89 µM | IC (TGI) (U251; U-251, read-out: TGI): 3.24 µM | GI50 (MALME-3M): 12.3 µM | IC50 (MALME-3M): 24.6 µM | activity at 10 µM (MALME-3M; [3]): -42.9% | CC50 (MALME-3M; read-out: LC50): 55 µM | IC (TGI) (MALME-3M; read-out: TGI): 26.3 µM | GI50 (M14; M14): 7.08 µM | IC50 (M14; M14): 11.8 µM | activity at 10 µM (M14; M14, 48 h, read-out: Growth Percentage): 1.86% | CC50 (M14; M14, read-out: LC50): 83.2 µM | IC (TGI) (M14; M14, read-out: TGI): 25.7 µM | GI50 (SK-MEL-2; SK-MEL-2): 12.6 µM | IC50 (SK-MEL-2; SK-MEL-2): 26.9 µM | activity at 10 µM (SK-MEL-2; SK-MEL-2, 48 h, read-out: Growth Percentage): 16.9% | CC50 (SK-MEL-2; SK-MEL-2, read-out: LC50): 53.7 µM | IC (TGI) (SK-MEL-2; SK-MEL-2, read-out: TGI): 26.3 µM | GI50 (SK-MEL-5; SK-MEL-5): 13.2 µM | IC50 (SK-MEL-5; SK-MEL-5): 22.9 µM | activity at 10 µM (SK-MEL-5; SK-MEL-5, 48 h, read-out: Growth Percentage): -68.8% | CC50 (SK-MEL-5; SK-MEL-5, read-out: LC50): 51.3 µM | IC (TGI) (SK-MEL-5; SK-MEL-5, read-out: TGI): 26.3 µM | GI50 (UACC-257; UACC-257): 3.39 µM | IC50 (UACC-257; UACC-257): 10 µM | activity at 10 µM (UACC-257; UACC-257, 48 h, read-out: Growth Percentage): 9.4% | CC50 (UACC-257; UACC-257, read-out: LC50): 38 µM | IC (TGI) (UACC-257; UACC-257, read-out: TGI): 13.5 µM | GI50 (UACC-62; UACC-62): 3.55 µM | IC50 (UACC-62; UACC-62): 7.94 µM | activity at 10 µM (UACC-62; UACC-62, 48 h, read-out: Growth Percentage): -56.7% | CC50 (UACC-62; UACC-62, read-out: LC50): 41.7 µM | IC (TGI) (UACC-62; UACC-62, read-out: TGI): 15.8 µM | GI50 (IGROV1; IGROV-1): 3.02 µM | IC50 (IGROV1; IGROV-1): 4.9 µM | activity at 10 µM (IGROV1; IGROV-1, 48 h, read-out: Growth Percentage): 10.2% | CC50 (IGROV1; IGROV-1, read-out: LC50): 47.9 µM | IC (TGI) (IGROV1; IGROV-1, read-out: TGI): 12.3 µM | GI50 (OVCAR-8; OVCAR-8): 3.31 µM | IC50 (OVCAR-8; OVCAR-8): 4.57 µM | activity at 10 µM (OVCAR-8; OVCAR-8, 48 h, read-out: Growth Percentage): 13.4% | CC50 (OVCAR-8; OVCAR-8, read-out: LC50): 38 µM | IC (TGI) (OVCAR-8; OVCAR-8, read-out: TGI): 11.8 µM | GI50 (SK-OV-3; SK-OV-3): 5.89 µM | IC50 (SK-OV-3; SK-OV-3): 15.1 µM | activity at 10 µM (SK-OV-3; SK-OV-3, 48 h, read-out: Growth Percentage): 44.6% | CC50 (SK-OV-3; SK-OV-3, read-out: LC50): 45.7 µM | IC (TGI) (SK-OV-3; SK-OV-3, read-out: TGI): 18.6 µM | GI50 (CAKI-1; CAKI-1): 10.5 µM | IC50 (CAKI-1; CAKI-1): 20.4 µM | activity at 10 µM (CAKI-1; CAKI-1, 48 h, read-out: Growth Percentage): -56.5% | CC50 (CAKI-1; CAKI-1, read-out: LC50): 51.3 µM | IC (TGI) (CAKI-1; CAKI-1, read-out: TGI): 22.9 µM | GI50 (RXF 393; RXF 393): 10.2 µM | IC50 (RXF 393; RXF 393): 24.6 µM | activity at 10 µM (RXF 393; RXF 393, 48 h, read-out: Growth Percentage): -91.9% | CC50 (RXF 393; RXF 393, read-out: LC50): 47.9 µM | IC (TGI) (RXF 393; RXF 393, read-out: TGI): 22.4 µM | GI50 (UO-31; UO-31): 3.89 µM | IC50 (UO-31; UO-31): 10.7 µM | activity at 10 µM (UO-31; UO-31, 48 h, read-out: Growth Percentage): -89.6% | CC50 (UO-31; UO-31, read-out: LC50): 43.6 µM | IC (TGI) (UO-31; UO-31, read-out: TGI): 17 µM | GI50 (MCF7; MCF7): 2.75 µM | IC50 (MCF7; MCF7): 6.31 µM | activity at 10 µM (MCF7; MCF7, 48 h, read-out: Growth Percentage): -45.4% | CC50 (MCF7; MCF7, read-out: LC50): 38 µM | IC (TGI) (MCF7; MCF7, read-out: TGI): 9.77 µM | GI50 (MDA-MB-231/ATCC; MDA-MB-231): 5.25 µM | IC50 (MDA-MB-231/ATCC; MDA-MB-231): 16.2 µM | activity at 10 µM (MDA-MB-231/ATCC; MDA-MB-231, 48 h, read-out: Growth Percentage): -17.6% | CC50 (MDA-MB-231/ATCC; MDA-MB-231, read-out: LC50): 44.7 µM | IC (TGI) (MDA-MB-231/ATCC; MDA-MB-231, read-out: TGI): 17.8 µM | GI50 (HS 578T): 17.4 µM | IC50 (HS 578T): 67.6 µM | activity at 10 µM (HS 578T; [3]): 24.5% | CC50 (HS 578T; read-out: LC50): > 100 µM | IC (TGI) (HS 578T; read-out: TGI): 52.5 µM
